Assay results as given in paper PMC10290117, “Molecular mechanism of phosphopeptide neoantigen immunogenicity” (Nature Communications, 2023).
Square brackets hold non-standard residues; d marks the D form. Ends that are not written are not given here. Peptide text beside a SMILES is read from it. Abu(4-PO3H2) = N[C@@H](CCP(=O)(O)O)C(=O)O; pS = N[C@@H](COP(=O)(O)O)C(=O)O

Legend:
HLA-B*0702 = HLA-B*0702 (Homo sapiens, UniProt P01889); assay: Alpha assay, peptide binding to HLA-B*0702; details: Alpha assay (luminescent oxygen channeling), W6/32 antibody and biotinylated recombinant HLA class I; non-linear fit
Protocol: (§1) Peptides were dissolved in dimethyl sulfoxide (DMSO) at concentrations of 2–20 mg/mL, aliquoted and stored at −80 °C. Peptide-pulsing experiments were performed by pre-incubating T2 cells with 25 μg peptide per 1 × 10^6 cells in PBS for 2 h at 37 °C and 5% CO2, washed three times to remove unbound peptides and used for further downstream analysis. Peptide-pulsed T2 cells were incubated with effector cells in a 2:1 ratio overnight in SF-IMDM at 37 °C and 10% CO2, washed twice and stained with anti-mouse TCR-® chain clone H57-597 (BD Pharmingen #560656, 1:500) for 30 min at RT. Cells were washed twice before FACS-analysis using a BD FACS Canto II with System software v2.0. Data analysis was performed using FlowJo V10 Software. Binding affinity between each peptide and HLA-B*0702 was determined using an Alpha assay. It is a homogenous, proximity-based assay for detection of peptides binding to HLA class I molecules using a conformation-dependent anti-HLA class I antibody, W6/32, as one tag and a biotinylated recombinant HLA class I molecule as the other tag, and a proximity-based signal was generated through the luminescent oxygen channeling immunoassay technology (PerkinElmer) as described.

TCR27-AKD10R3 cells = assay: X-scan (peptide scan), EGFP reporter effector cells; type: cell-based, murine; details: Fig. 1c source data
Protocol: Tap-deficient T2 (174x CEM.T2) HLA-B*0702+ cells were received from Dr. Victor Engelhard. These and the commercially purchased Tap-deficient T2 (174 x CEM.T2) cells (ATCC CRL 1991) were maintained in RPMI 1640 (BioConcept) supplemented with 10% fetal calf serum (FCS, HyClone), 2mM L-glutamine and 1% Penicillin/Streptomycin at 37 °C and 5% CO2. The EGFP reporter cell line was based on a murine TCR negative thymoma cell line derived from strain BW5417 (ATCC®TIB-47TM) and was stably transduced with (a) TCR27 in which the human constant regions were replaced with those of mouse, (b) a chimeric mouse/human CD8, and (c) an EGFP reporter construct linked to a minimal IL-2 promoter comprising three NFAT-binding sites (3xNFAT)[44]. The transduced cells were termed TCR27-AKD10R3 cells and will be called the effector cells. Mouse cell lines were cultured in SF-IMDM (BioConcept) supplemented with 3% FCS, 1% Penicillin/Streptomycin, and 50 μM beta-mercaptoethanol at 37 °C and 10% CO2.
as §1
To identify the off-target peptides we have utilized an approach that was developed previously. In brief, we investigated which amino acids at each position in pMLL747–755 enable TCR interaction by sequentially replacing every amino acid position outside of the anchor positions 2 and 9 with all 19 alternative amino acids, resulting in 134 peptides (133 altered peptides plus original epitope). Each peptide was individually evaluated using cell-based in vitro cytotoxicity assay. To represent the TCR recognition kernel, we have defined Position Weight Matrices (PWMs) for each assay by assigning normalized measurements to each of the 20 amino acids in each position. To predict potential off-target peptides, we applied an algorithm projecting the PWM-defined kernel into the human proteome, scoring TCR27 recognition for the predicted HLA-B^*0702 binding 9-mer peptides. Of the 11 peptides with highest predicted cross-reactivity scores, we confirmed that only 2, […] and pDOT1L998–1006, strongly activated the TCR27-expressing effector T cells.

[1] = HLA B*07, T2 cells pulsed with 25 μg peptide per 1 × 10^6 cells, 2 h, 37 °C, effector cells 2:1 overnight, mean value of triplicate

Row | Compound | Percentage GFP positive from TCR+ cells (TCR27-AKD10R3 cells; [1]) | other results
1 | CSCC[C@H](NC(=O)[C@H](CO)NC(=O)[C@H](Cc1c[nH]cn1)NC(=O)[C@H](CO)NC(=O)[C@@H]1CCCN1C(=O)[C@H](CCP(=O)(O)O)NC(=O)[C@H](CCCNC(=N)N)NC(=O)[C@@H]1CCCN1C(=O)[C@@H](N)CCC(=O)O)C(=O)O [E7P-MLL747–755] (H-EPR[Abu(4-PO3H2)]PSHSM-OH) | – | Kd (HLA-B*0702): 0.0339 µM
2 | CSCC[C@H](NC(=O)[C@H](CO)NC(=O)[C@H](Cc1c[nH]cn1)NC(=O)[C@H](CO)NC(=O)[C@@H]1CCCN1C(=O)[C@H](COS(=O)(=O)O)NC(=O)[C@H](CCCNC(=N)N)NC(=O)[C@@H]1CCCN1C(=O)[C@@H](N)CCC(=O)O)C(=O)O [OSE-MLL747–755] | – | Kd (HLA-B*0702): 0.0262 µM
3 | CC(C)C[C@H](NC(=O)[C@H](CCC(N)=O)NC(=O)[C@H](Cc1c[nH]cn1)NC(=O)[C@H](C)NC(=O)[C@@H]1CCCN1C(=O)[C@H](COP(=O)(O)O)NC(=O)[C@H](C)NC(=O)[C@@H]1CCCN1C(=O)[C@@H](N)CC(C)C)C(=O)O [pDOT1L998–1006] (H-LPA[pS]PAHQL-OH) | – | Kd (HLA-B*0702): 0.309 µM
4 | CSCC[C@H](NC(=O)[C@H](CO)NC(=O)[C@H](Cc1c[nH]cn1)NC(=O)[C@H](CO)NC(=O)[C@@H]1CCCN1C(=O)[C@H](COP(=O)(O)O)NC(=O)[C@H](CCCNC(=N)N)NC(=O)[C@@H]1CCCN1C(=O)[C@@H](N)CCC(=O)O)C(=O)O [pMLL747–755] (H-EPR[pS]PSHSM-OH) | – | Kd (HLA-B*0702): 0.0567 µM
5 | EPRSPSHSM [MLL747–755] | – | Kd (HLA-B*0702): 0.027 µM
6 | EPRsPSLSM [single-residue substitution of pMLL747–755, Pos 7] | 0.77% | –
7 | EPRsPSMSM [single-residue substitution of pMLL747–755, Pos 7] | 1.05% | –
8 | EPRsPSNSM [single-residue substitution of pMLL747–755, Pos 7] | 1.24% | –
9 | EPRsPSPSM [single-residue substitution of pMLL747–755, Pos 7] | 0.81% | –
10 | EPRsPSQSM [single-residue substitution of pMLL747–755, Pos 7] | 2.94% | –
11 | EPRsPSRSM [single-residue substitution of pMLL747–755, Pos 7] | 1.16% | –
12 | EPRsPSSSM [single-residue substitution of pMLL747–755, Pos 7] | 1.6% | –
13 | EPRsPSTSM [single-residue substitution of pMLL747–755, Pos 7] | 3.23% | –
14 | EPRsPSVSM [single-residue substitution of pMLL747–755, Pos 7] | 2.51% | –
15 | EPRsPSWSM [single-residue substitution of pMLL747–755, Pos 7] | 1.19% | –
16 | EPRsPSYSM [single-residue substitution of pMLL747–755, Pos 7] | 2.33% | –
17 | EPRsPTHSM [single-residue substitution of pMLL747–755, Pos 6] | 1.88% | –
18 | EPRsPVHSM [single-residue substitution of pMLL747–755, Pos 6] | 0.85% | –
19 | EPRsPWHSM [single-residue substitution of pMLL747–755, Pos 6] | 0.66% | –
20 | EPRsPYHSM [single-residue substitution of pMLL747–755, Pos 6] | 0.75% | –
21 | EPRsQSHSM [single-residue substitution of pMLL747–755, Pos 5] | 0.72% | –
22 | EPRsRSHSM [single-residue substitution of pMLL747–755, Pos 5] | 0.73% | –
23 | EPRsSSHSM [single-residue substitution of pMLL747–755, Pos 5] | 0.79% | –
24 | EPRsTSHSM [single-residue substitution of pMLL747–755, Pos 5] | 0.78% | –
25 | EPRsVSHSM [single-residue substitution of pMLL747–755, Pos 5] | 0.96% | –

Row | Compound | Percentage GFP positive from TCR+ cells (TCR27-AKD10R3 cells; [1]) | other results
26 | EPRsWSHSM [single-residue substitution of pMLL747–755, Pos 5] | 1.08% | –
27 | EPRsYSHSM [single-residue substitution of pMLL747–755, Pos 5] | 1% | –
28 | EPSsPSHSM [single-residue substitution of pMLL747–755, Pos 3] | 2.7% | –
29 | EPTsPSHSM [single-residue substitution of pMLL747–755, Pos 3] | 1.16% | –
30 | EPVsPSHSM [single-residue substitution of pMLL747–755, Pos 3] | 2.11% | –
31 | EPWsPSHSM [single-residue substitution of pMLL747–755, Pos 3] | 0.92% | –
32 | EPYsPSHSM [single-residue substitution of pMLL747–755, Pos 3] | 1.08% | –
33 | FPRsPSHSM [single-residue substitution of pMLL747–755, Pos 1] | 1.43% | –
34 | GPRsPSHSM [single-residue substitution of pMLL747–755, Pos 1] | 1.59% | –
35 | HPRsPSHSM [single-residue substitution of pMLL747–755, Pos 1] | 1.23% | –
36 | IPRsPSHSM [single-residue substitution of pMLL747–755, Pos 1] | 1.7% | –
37 | KPRsPSHSM [single-residue substitution of pMLL747–755, Pos 1] | 1.37% | –
38 | LPASPAHQL [DOT1L998–1006] | – | Kd (HLA-B*0702): 0.0543 µM
39 | LPRsPSHSM [single-residue substitution of pMLL747–755, Pos 1] | 10.7% | –
40 | MPRsPSHSM [single-residue substitution of pMLL747–755, Pos 1] | 1.37% | –
41 | NPRsPSHSM [single-residue substitution of pMLL747–755, Pos 1] | 1.27% | –
42 | PPRsPSHSM [single-residue substitution of pMLL747–755, Pos 1] | 1.13% | –
43 | QPRsPSHSM [single-residue substitution of pMLL747–755, Pos 1] | 2.64% | –
44 | RPRsPSHSM [single-residue substitution of pMLL747–755, Pos 1] | 1.11% | –
45 | RVR[pS]PTRSL [unrelated phosphopeptide control of the X-scan, reference compound] | – | Percentage GFP positive from TCR+ cells (TCR27-AKD10R3 cells; second set of control lines at the end of the sheet (no Pep code)): 0.74%
46 | SPRsPSHSM [single-residue substitution of pMLL747–755, Pos 1] | 1.08% | –
47 | TPRsPSHSM [single-residue substitution of pMLL747–755, Pos 1] | 1.28% | –
48 | VPRsPSHSM [single-residue substitution of pMLL747–755, Pos 1] | 1.39% | –
49 | WPRsPSHSM [single-residue substitution of pMLL747–755, Pos 1] | 1.18% | –
50 | YPRsPSHSM [single-residue substitution of pMLL747–755, Pos 1] | 1.32% | –
